Cc1c(C(=O)c2c[nH]n(C)c2=O)ccc(S(C)(=O)=O)c1C1=NOCC1
solubility (mole fraction)
Conditions | 283.15 K | 288.15 K | 293.15 K | 298.15 K | 303.15 K | 308.15 K | 313.15 K | 318.15 K | 323.15 K
in THF | 0.00274 | 0.0031 | 0.00351 | 0.00397 | 0.00449 | 0.00509 | 0.00576 | 0.00652 | 0.00738
in acetone | 0.00112 | 0.0013 | 0.00151 | 0.00176 | 0.00204 | 0.00236 | 0.00274 | 0.00318 | 0.0037
in acetonitrile | 0.000648 | 0.000778 | 0.000934 | 0.00112 | 0.00134 | 0.00161 | 0.00194 | 0.00232 | 0.00279
in ethanol | 6.16e-05 | 8.08e-05 | 0.000106 | 0.000139 | 0.000182 | 0.000239 | 0.000314 | 0.000412 | 0.000541
in ethyl acetate | 0.000521 | 0.000624 | 0.000747 | 0.000894 | 0.00107 | 0.00128 | 0.00153 | 0.00183 | 0.0022
in isobutanol | 4.16e-05 | 5.6e-05 | 7.53e-05 | 0.000101 | 0.000137 | 0.000184 | 0.000247 | 0.000333 | 0.000449
in isobutyl acetate | 0.000421 | 0.000481 | 0.000549 | 0.000627 | 0.000716 | 0.000818 | 0.000934 | 0.00107 | 0.00122
in isopropanol | 3.8e-05 | 5.11e-05 | 6.87e-05 | 9.23e-05 | 0.000124 | 0.000167 | 0.000224 | 0.000302 | 0.000405
in isopropyl acetate | 0.000297 | 0.000353 | 0.00042 | 0.000499 | 0.000594 | 0.000706 | 0.000839 | 0.000997 | 0.00119
in methanol | 0.000139 | 0.000173 | 0.000215 | 0.000267 | 0.000333 | 0.000414 | 0.000516 | 0.000642 | 0.000799
in methyl acetate | 0.000989 | 0.00116 | 0.00135 | 0.00157 | 0.00184 | 0.00215 | 0.00251 | 0.00293 | 0.00342
in n-butanol | 6.22e-05 | 8.09e-05 | 0.000105 | 0.000137 | 0.000178 | 0.000232 | 0.000301 | 0.000392 | 0.00051
in n-butyl acetate | 0.000355 | 0.000419 | 0.000495 | 0.000584 | 0.00069 | 0.000815 | 0.000962 | 0.00114 | 0.00134
in n-propanol | 5.61e-05 | 7.35e-05 | 9.63e-05 | 0.000126 | 0.000165 | 0.000217 | 0.000284 | 0.000372 | 0.000488
in n-propyl acetate | 0.000415 | 0.000496 | 0.000594 | 0.00071 | 0.000849 | 0.00101 | 0.00121 | 0.00145 | 0.00173
in toluene | 0.000256 | 0.0003 | 0.00035 | 0.00041 | 0.000479 | 0.00056 | 0.000655 | 0.000766 | 0.000895

— BigSolDB 2.1
